Results as given in patent publication US10154983B2, “Neurodegenerative disorders and muscle diseases implicating PUFAs” (Retrotope, Inc., priority 2011, dated 2018).

How the values were obtained:
[1] = Kinetics of oxygen consumption during oxidation in chlorobenzene initiated by AMVN; type: physicochemical
Method: FIG. 7. Kinetics of O2 consumption accompanied the oxidation of 0.71 M LA (plots 1 and 2) and 0.71 M D2-LA (plot 3) in chlorobenzene initiated by 40 mM AMVN at 37° C. Plot 2—0.23 mM HPMC was added to 0.71 M LA.
The kinetics of oxygen consumption during the oxidation of LA and D2-LA was studied with a glass capillary microvolumeter (FIG. 7). The rate of oxidation, ROX, was measured as a slope of [O2] traces. The rate of initiation, RIN, was determined by the inhibitor method with HPMC (“6-hydroxy-2,2,5,7,8-pentamethylbenzochroman”) as a reference inhibitor. RIN was calculated from the induction period of inhibited oxidation, tIND: RIN=2·[HPMC]/tIND. […] When the process was inhibited by 0.23 mM chain-breaking antioxidant HPMC, the duration of the induction period, tIND, was about 48 min, with the RIN value of around 0.16×10^−6 M/s. […] The latter precludes a direct determination of RIN. […] An estimated kinetic isotope effect (“KIE”), from comparison of ROX for LA and D2-LA, was around 6.1×10^−6/0.18×10^−6≈35. A similar KIE was determined during the oxidation of LA and 11,11-d2-LA in Triton X-100 aqueous micelles (data not shown). For comparative purposes, the theoretical KIE is 6.9 at 25° C. See Carpenter, “Determination of Organic Reaction Mechanisms” (John Wiley & Sons, 1984), p. 89.

coq null mutants [2] = conditions: for viability of coq null mutants: 200 μM fatty acid, plate dilution assay
Method: FIG. 3. […] Yeast coq3, coq7 and coq9 null mutants were prepared in the W303 yeast genetic background (WT). Yeast strains were grown in YPD medium (1% Bacto-yeast extract, 2% Bacto-peptone, 2% dextrose) and harvested while in log phase growth (OD600 nm=0.1-1.0). Cells were washed twice with sterile water and resuspended in phosphate buffer (0.10 M sodium phosphate, pH 6.2, 0.2% dextrose) to an OD600 nm=0.2. Samples were removed and 1:5 serial dilutions starting at 0.20 OD/ml were plated on YPD plate medium, to provide a zero time untreated control (shown in top left panel). The designated fatty acids were added to 200 μM final concentration to 20 ml of yeast in phosphate buffer. At 2 h, 4 h, and 16 h samples were removed, 1:5 serial dilutions prepared, and spotted onto YPD plate medium. Pictures were taken after 2 days of growth at 30° C.
FIG. 4. […] The fatty acid sensitive assay was performed as described in FIG. 3, except that 100 μl aliquots were removed at 1, 2, and 4 h and, following dilution, spread onto YPD plates. Pictures were taken after 2 to 2.5 days, and the number of colonies counted.
Q-less yeast (coq mutants) provide an ideal system to assess in vivo autoxidation of fatty acids. Coenzyme Q (ubiquinone or Q) serves as a small lipophilic antioxidant as well as an electron shuttle in the respiratory chain of the mitochondrial inner membrane. Ten S. cerevisiae genes (COQ1-COQ10) are required for coenzyme Q biosynthesis and function, and the deletion of any results in respiratory deficiency (Tran U C, Clarke C F. Mitochondrion 2007; 7S,S62).
A plate dilution assay can be used to assess PUFA sensitivity. This assay can be performed by spotting serial five-fold dilutions of aliquots onto YPD plate media (FIG. 3). The sensitivity of the different strains can be observed by visual inspection of the density of cells in each spot.

Wild-type yeast = conditions: 200 μM fatty acid, 4 h incubation
Method: Uptake of exogenously supplied fatty acids by yeast. WT (W303) yeast were harvested at log phase and incubated in the presence of 200 μM of the designated fatty acid for either 0 or 4 h.
Wild-type yeast were harvested during log phase growth and incubated in the presence of exogenously added fatty acid (for 0 or 4 h) in the presence of phosphate buffer plus 0.20% dextrose, as described for the fatty acid sensitivity assay. Cells were harvested, washed twice with 10 ml sterile water, and the yeast cell pellets were then processed by alkaline methanolysis as described above. The fatty acids are detected as methylesters (FAMEs) following GC-MS with C17:0 added as an internal standard (FIG. 6). The amounts of 18:3 and D4 detected after 4 h incubation were extrapolated from the calibration curve.

coq null mutants [3] = conditions: four hour treatment; cited from earlier work
[4] = test system: wild-type (strain W303-1B) cells; conditions: four hour treatment; cited from earlier work
[5] = Kinetics of the oxidation of mixtures of D2-LA and LA; type: physicochemical; conditions: data not shown
Method: FIG. 8. Dependence of the rate of oxidation of the mixture of LA and D2-LA in chlorobenzene solution on mixture composition. Conditions: [LA]+[11,11-d2-LA]=0.775 M; [AMVN]=0.0217 M; 37° C. RIN=(1.10±0.08)×10^−7 M/sec.
To simulate the likely in vivo conditions, the kinetics of the oxidation of the mixtures of D2-LA and LA were studied (FIG. 8). In the experiments, the concentration of LA plus 11,11-d2-LA was 0.775 M; the concentration of AMVN was 0.0217 M; and the reactions were carried out at 37° C. The results afforded an RIN of 1.10±0.08×10^−7 M/sec.

| Compound | length of the kinetic chain v=ROX/RIN [1] | viability of coq null mutants (coq null mutants [2]) | incorporation by yeast (Wild-type yeast) | protection in the yeast model (coq null mutants [2]) | further results |
| --- | --- | --- | --- | --- | --- |
| CCCCC/C=C\C/C=C\CCCCCCCC(=O)O [LA, (9Z,12Z)-9,12-Octadecadienoic acid, reference compound] | 38±3 | – | – | – | – |
| [2H]C([2H])(/C=C\CC)/C=C\C([2H])([2H])/C=C\CCCCCCCC(=O)O [D4-linolenic acid, 11,11,14,14-Tetradeutero-cis,cis,cis-octadeca-8,12,15-trienoic acid] | – | not killed | avidly incorporate | – | viability of treated cells compared with oleic (coq null mutants [2]; quantitative colony counting): similar |
| CC/C=C\C/C=C\C/C=C\CCCCCCCC(=O)O [linolenic acid, (9Z,12Z,15Z)-9,12,15-Octadecatrienoic acid, reference compound] | – | dramatic loss of viability | avidly incorporate | – | Q-less (coq2, coq3, and coq5) yeast mutants viable following treatment (coq null mutants [3]): Less than 1%; wild-type cells remaining viable [4]: 70% |
| [2H]C([2H])(/C=C\CCCCC)/C=C\CCCCCCCC(=O)O [D2-LA, 11,11-Dideutero-cis,cis-octadeca-9,12-dienoic acid] | ≈ 1.1 | – | – | – | effect of addition of HPMC [1]: did not result in the decrease in ROX and the appearance of any detectable induction period; effect on oxidation of mixture with non-deuterated methyl linoleate [5]: qualititatively similar effect |
| [2H]C([2H])(/C=C\CC)/C=C\CC/C=C\CCCCCCC(=O)O [14,14-D2-linolenic acid, 14,14-Dideutero-cis,cis,cis-octadeca-8,12,15-trienoic acid] | – | – | – | comparable protection | – |
| [2H]C([2H])(/C=C\C/C=C\CC)C/C=C\CCCCCCC(=O)O [11,11-D2-linolenic acid, 11,11-Dideutero-cis,cis,cis-octadeca-8,12,15-trienoic acid] | – | – | – | comparable protection | – |
